In series [1] the target is Amyloid-beta precursor protein (Homo sapiens) (UniProt P05067). Description: Inhibition of amyloid beta (1 to 42) (unknown origin) self-induced aggregation at 20 uM after 46 to 48 hrs by thioflavin-T fluorescence method.
Series [2] addresses T1, Amine oxidase [flavin-containing] A (Homo sapiens, UniProt P21397).
T1 sequence (P21397 whole entry): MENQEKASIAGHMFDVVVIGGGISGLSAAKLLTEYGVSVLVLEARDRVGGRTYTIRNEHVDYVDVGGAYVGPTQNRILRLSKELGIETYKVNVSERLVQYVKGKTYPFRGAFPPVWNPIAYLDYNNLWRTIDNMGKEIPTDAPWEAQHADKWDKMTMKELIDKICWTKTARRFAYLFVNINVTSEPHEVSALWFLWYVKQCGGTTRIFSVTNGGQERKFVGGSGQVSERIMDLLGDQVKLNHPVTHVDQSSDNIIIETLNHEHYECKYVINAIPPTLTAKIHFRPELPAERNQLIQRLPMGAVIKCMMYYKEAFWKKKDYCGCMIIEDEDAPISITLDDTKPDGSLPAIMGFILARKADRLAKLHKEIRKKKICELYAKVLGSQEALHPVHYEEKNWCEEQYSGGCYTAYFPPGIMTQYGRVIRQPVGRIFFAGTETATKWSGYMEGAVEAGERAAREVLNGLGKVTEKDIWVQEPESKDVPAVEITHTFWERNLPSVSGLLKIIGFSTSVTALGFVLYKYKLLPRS
In words: Inhibition of human recombinant MAO-A using p-tyramine as substrate assessed as H2O2 production at 100 uM after 15 mins by fluorescence assay. The note with it: 0.25 h.

Series [3] addresses T2, Amine oxidase [flavin-containing] B (Homo sapiens, UniProt P27338).
T2 sequence (P27338 whole entry): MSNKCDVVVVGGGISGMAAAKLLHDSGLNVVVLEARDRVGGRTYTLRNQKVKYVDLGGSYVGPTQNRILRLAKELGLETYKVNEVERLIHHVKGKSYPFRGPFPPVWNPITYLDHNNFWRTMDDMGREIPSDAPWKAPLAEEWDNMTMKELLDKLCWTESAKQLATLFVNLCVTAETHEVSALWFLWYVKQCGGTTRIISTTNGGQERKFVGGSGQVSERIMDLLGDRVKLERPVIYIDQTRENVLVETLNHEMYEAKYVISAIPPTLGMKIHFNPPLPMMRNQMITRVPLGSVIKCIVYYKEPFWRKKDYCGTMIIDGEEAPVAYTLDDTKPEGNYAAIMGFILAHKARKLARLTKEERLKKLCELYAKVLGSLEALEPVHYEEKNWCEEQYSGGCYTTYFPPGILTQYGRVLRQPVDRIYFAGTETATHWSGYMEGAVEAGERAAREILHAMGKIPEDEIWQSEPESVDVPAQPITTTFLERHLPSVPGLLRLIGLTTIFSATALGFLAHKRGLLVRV
Description: Inhibition of human recombinant MAO-B using p-tyramine as substrate assessed as H2O2 production after 15 mins by fluorescence assay.

Series [4] can be described thus: Permeability of the compound after 16 hrs by PAMPA. It counts as ADME. The following applies: read-out: Peff. For orientation: In PAMPA a lipid-coated filter parts donor from acceptor wells.
The target in series [5] is T2, Amine oxidase [flavin-containing] B. In words: Irreversible inhibition of human MAO-B at 2 times IC50 using p-tyramine as substrate assessed as H2O2 production after 0 to 60 mins.
Series [6] in a line: Metal chelating activity of the compound assessed as formation of copper complex at 35 uM by UV-Vis spectrophotometry. It counts as physicochemical.
The nature of series [7]: Cytotoxicity against rat PC12 cells assessed as cell viability at 1 to 100 uM after 24 hrs by MTT assay. Type of series: cell-based. The following applies: pc-12, 24 h. (Formazan colour is commonly taken as a measure of viable cells.)
The nature of series [8]: Cytotoxicity against human SH-SY5Y cells assessed as cell viability at 1 to 100 uM after 24 hrs by MTT assay. It counts as cell-based.
Series [9] addresses T2, Amine oxidase [flavin-containing] B. Description: Ratio of pargyline IC50 to compound IC50 for human recombinant MAO-B.

Structures are written as SMILES.

Chain of Amyloid-beta precursor protein (Homo sapiens) (P05067 whole entry): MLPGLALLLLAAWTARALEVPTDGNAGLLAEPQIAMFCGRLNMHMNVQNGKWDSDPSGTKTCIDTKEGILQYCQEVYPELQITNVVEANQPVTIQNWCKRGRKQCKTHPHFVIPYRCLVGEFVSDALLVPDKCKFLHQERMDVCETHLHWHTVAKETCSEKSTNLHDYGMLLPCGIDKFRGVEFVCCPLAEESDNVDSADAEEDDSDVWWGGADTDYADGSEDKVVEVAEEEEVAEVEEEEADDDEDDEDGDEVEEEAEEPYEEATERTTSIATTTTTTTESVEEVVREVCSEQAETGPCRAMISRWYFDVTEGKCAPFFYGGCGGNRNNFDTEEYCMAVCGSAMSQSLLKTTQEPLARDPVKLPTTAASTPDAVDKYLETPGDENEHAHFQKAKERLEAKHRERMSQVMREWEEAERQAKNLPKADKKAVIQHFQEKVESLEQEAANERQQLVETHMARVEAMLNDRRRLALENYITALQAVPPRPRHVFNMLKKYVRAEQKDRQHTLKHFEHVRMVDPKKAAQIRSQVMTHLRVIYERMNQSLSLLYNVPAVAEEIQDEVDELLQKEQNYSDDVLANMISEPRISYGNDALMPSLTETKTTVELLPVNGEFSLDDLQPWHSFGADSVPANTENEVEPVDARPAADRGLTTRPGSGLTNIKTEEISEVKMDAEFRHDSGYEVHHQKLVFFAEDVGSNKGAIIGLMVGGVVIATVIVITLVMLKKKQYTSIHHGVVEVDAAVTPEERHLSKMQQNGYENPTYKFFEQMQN

With `COc1ccc(/C=N/c2ccc3c(C)cc(=O)oc3c2)c(O)c1`, the inhibition in [1] is 50.2%.
Compound `Cc1c(Cl)c(=O)oc2cc(NCc3ccccc3O)ccc12` returned an inhibition in series [1] of 47.6%.
With `Cc1cc(=O)oc2cc(/N=C/c3ccccc3O)ccc12`, in series [2], the inhibition at 100 µM worked out at 47.2%. In addition, the IC50 in series [3] was found to be 723 nM. Further, the inhibition in [1] was determined as 44.8%.
The compound `Cc1c(Cl)c(=O)oc2cc(/N=C/c3ccc(O)cc3O)ccc12` yielded an inhibition in [1] of 60.2%.
With `O=c1oc2cc(/N=C/c3ccc(O)cc3O)ccc2c2c1CCCC2`, the inhibition at 100 µM in [2] turned out to be 22.6%. In series [3], the IC50 came to 3420 nM. In series [1], the inhibition is 58.5%.
Consider `O=c1oc2cc(/N=C/c3ccc(O)cc3O)ccc2c2c1CCC2`, for which the inhibition at 100 µM in [2] is 67.6%. The IC50 in series [3] stood at 217 nM. The inhibition in [1] is 56.4%. The Papp at 16 h in series [4] is 4.7 ×10⁻⁶ cm/s.
Consider `Cc1c(C)c2ccc(NCc3ccccc3O)cc2oc1=O`, for which the inhibition in [1] amounted to 47.7%. The Papp at 16 h in series [4] amounted to 12.3 ×10⁻⁶ cm/s.
As for `Cc1cc(=O)[nH]c2cc(/N=C/c3ccccc3O)ccc12`, the inhibition at 100 µM in [2] worked out at 54.2%. Further, the IC50 in series [3] stood at 12300 nM. Also, in series [1], the inhibition amounted to 35.6%.
Take `NCCc1ccc(O)c(O)c1` [DOPAMINE]: the Papp at 16 h in series [4] was 0.83 ×10⁻⁶ cm/s.
Consider `O=c1oc2cc(/N=C/c3ccccc3O)ccc2c2c1CCC2`, for which the inhibition at 100 µM in series [2] was determined as 3.5%. Also, the IC50 in series [3] came out at 81 nM. The same compound displayed an inhibition in [1] of 52.9%. The “inhibition (INH)” value in [5] is “Active”. Further, the Activity entry is listed as “Active” in series [6], “Non-toxic” in series [7] and “Non-toxic” in [8]. Also, the Papp at 16 h in series [4] is 8.9 ×10⁻⁶ cm/s. The “Ratio IC50” value in series [9] is recorded as 2.
In series [1], `Cc1ccc(/C=N/c2ccc3c(C)cc(=O)oc3c2)c(O)c1` yielded an inhibition of 49.4%.
With `C[C@]12CC[C@@H]3c4ccc(O)cc4CC[C@H]3[C@@H]1CC[C@@H]2O` [ESTRADIOL], the Papp at 16 h in [4] amounted to 8.33 ×10⁻⁶ cm/s.
With `O=c1oc2cc(NCc3ccccc3O)ccc2c2c1CCC2`, the inhibition at 100 µM in series [2] was determined as 23.6%. For the same compound, in series [3], the IC50 worked out at 9330 nM. Besides, the inhibition in series [1] came to 41.6%.
In turn, `Cc1c(C)c2ccc(/N=C/c3ccc(O)cc3O)cc2oc1=O` had an inhibition in [1] of 57.6%. Also, the Papp at 16 h in series [4] came to 6.7 ×10⁻⁶ cm/s.
For `O=c1oc2cc(NCc3ccccc3O)ccc2c2c1CCCC2`, the inhibition at 100 µM in series [2] worked out at 53.6%. Also, in series [3], the IC50 turned out to be 1240 nM. Further, the inhibition in series [1] came out at 43.7%.
The matching figures for `O=c1oc2cc(/N=C/c3ccccc3O)ccc2c2c1CCCC2`: 17.2%, 841 nM and 53.7%.
`Cc1cc(=O)oc2cc(/N=C/c3ccc(Br)cc3O)ccc12`: the inhibition in series [1] came to 51.5%.
For the compound `CN1C(C(=O)Nc2ccccn2)=C(O)c2ccccc2S1(=O)=O` [PIROXICAM], the Papp at 16 h in [4] was found to be 1.72 ×10⁻⁶ cm/s.
`Cc1cc(=O)oc2cc(/N=C/c3ccc(O)cc3O)ccc12` gave an inhibition in series [1] of 50.3%.
In the case of `C[C@]12C[C@H](O)[C@H]3[C@@H](CCC4=CC(=O)CC[C@@]43C)[C@@H]1CC[C@@H]2C(=O)CO` [CORTICOSTERONE], the Papp at 16 h in [4] worked out at 1.09 ×10⁻⁶ cm/s.
For the compound `Cc1c(Cl)c(=O)oc2cc(/N=C/c3ccccc3O)ccc12`, the inhibition in series [1] was 49.3%.
Turning to `Cc1cc(=O)oc2cc(NCc3ccccc3O)ccc12`, in series [2], the inhibition at 100 µM came to 39.4%. Besides, the IC50 in series [3] came out at 20100 nM. In series [1], this compound displayed an inhibition of 36.1%.
The corresponding values for `Cc1c(C)c2ccc(/N=C/c3ccccc3O)cc2[nH]c1=O` are 17.7%, 1680 nM and 49.1%.
In turn, `Cc1c(C)c2ccc(/N=C/c3ccccc3O)cc2oc1=O` registered an inhibition in series [1] of 53.9%. Further, the Papp at 16 h in [4] amounted to 10.6 ×10⁻⁶ cm/s.
On to `Cc1cc(=O)[nH]c2cc(NCc3ccccc3O)ccc12`, for which the inhibition in series [1] worked out at 32.6%.

As usually defined, the inhibition is how much of the control response was suppressed. The IC50 is the concentration needed to halve the response being measured.

(Values after ChEMBL document CHEMBL3392990, “Multifunctional coumarin derivatives: monoamine oxidase B (MAO-B) inhibition, anti-β-amyloid (Aβ) aggregation and metal chelation properties against Alzheimer's disease” (Bioorg Med Chem Lett, 2015).)
